Experimental data taken from ChEMBL document CHEMBL5107956, “Natural products from mangrove sediments-derived microbes: Structural diversity, bioactivities, biosynthesis, and total synthesis” (Eur J Med Chem, 2022).
Converted amounts (≈) assume the structure as drawn.

Legend:
HCT-116 [1] = assay: Cytotoxicity against human HCT-116 cells assessed as cell growth inhibition by SRB assay; assay type: functional, cell-based
SW-620 = assay: Cytotoxicity against human SW-620 cells assessed as cell growth inhibition by SRB assay; assay type: functional, cell-based
[2] = molecular target: Rho-associated protein kinase 2 (Homo sapiens, UniProt O75116); assay: Inhibition of ROCK2 (unknown origin) by HTRF kinase assay
OS-RC-2 = assay: Antiproliferative activity against human OS-RC-2 cells assessed as cell growth inhibition measured after 72 hrs by CCK-8 assay; assay type: functional, cell-based; conditions: OS-RC-2, 72 h
HL-60 = assay: Cytotoxicity against human HL-60 cells assessed as cell growth inhibition measured after 72 hrs by MTT assay; assay type: functional, cell-based; conditions: HL-60, 72 h
NCI-H1975 = assay: Cytotoxicity against human NCI-H1975 cells assessed as cell growth inhibition measured after 72 hrs by MTT assay; assay type: functional, cell-based; conditions: NCI-H1975, 72 h
A549 [3] = assay: Antiproliferative activity against human A549 cells assessed as cell growth inhibition by MTT assay; assay type: functional, cell-based
A2780 = assay: Cytotoxicity against human A2780 cells assessed as cell growth inhibition by MTT assay; assay type: functional, cell-based
HCT-8 = assay: Cytotoxicity against human HCT-8 cells assessed as cell growth inhibition by MTT assay; assay type: functional, cell-based
Bel-7402 = assay: Cytotoxicity against human Bel-7402 cells assessed as cell growth inhibition by MTT assay; assay type: functional, cell-based
HeLa [4] = assay: Cytotoxicity against human HeLa cells assessed as cell growth inhibition by MTT assay; assay type: functional, cell-based
RAW264.7 = assay: Antiinflammatory activity against LPS-induced mouse RAW264.7 cells assessed as inhibition of NO production measured after 24 hrs […]; assay type: functional, cell-based; conditions: RAW264.7, 24 h
[5] = molecular target: Phosphotyrosine-protein phosphatase PTPB (Mycobacterium tuberculosis, UniProt P96830); assay: Inhibition of N-terminal His6-tagged Mycobacterium tuberculosis H37Rv PTPB using 6,8-difluoromethylumbelliferyl phosphate as substrate incubated for 30 mins by fluorescence based analysis
[6] = Toxicity in brine shrimp assessed as induction of lethality; conditions: artemia salina; read-out: LD50 (the source's name)
PC-3 = assay: Cytotoxicity against human PC-3 cells assessed as cell growth inhibition; assay type: functional
LOX IMVI = assay: Cytotoxicity against human LOX IMVI cells assessed as cell growth inhibition; assay type: functional
HCT-116 [7] = assay: Cytotoxicity against human HCT-116 cells assessed as cell growth inhibition; assay type: functional
HOP-92 = assay: Cytotoxicity against human HOP-92 cells assessed as cell growth inhibition; assay type: functional
OVCAR-3 = assay: Cytotoxicity against human OVCAR-3 cells assessed as cell growth inhibition; assay type: functional
HepG2 = assay: Cytotoxicity against human HepG2 cells assessed as cell growth inhibition by MTT assay; assay type: functional, cell-based
A549 [8] = assay: Cytotoxicity against human A549 cells assessed as cell growth inhibition by MTT assay; assay type: functional, cell-based
MCF7 = assay: Cytotoxicity against human MCF7 cells assessed as cell growth inhibition by MTT assay; assay type: functional, cell-based
A-375 = assay: Cytotoxicity against human A-375 cells assessed as cell growth inhibition by MTT assay; assay type: functional, cell-based
HeLa [9] = assay: Cytotoxicity against human HeLa cells assessed as cell growth inhibition measured after 48 hrs by WST-8 assay; assay type: functional, cell-based
[10] = Cytotoxicity against human ACC-MESO-1 cells assessed as cell growth inhibition measured after 48 hrs by WST-8 assay; assay type: functional, cell-based; conditions: ACC-MESO-1, 48 h
Candida albicans = assay: Antifungal activity against Candida albicans assessed as fungal growth inhibition; assay type: functional
[11] = system: Colletotrichum gloeosporioides; assay: Antifungal activity against Colletotrichum gloeosporioides assessed as inhibition of fungal growth measured after 72 hrs by micro plate reader analysis; assay type: functional
Meloidogyne javanica = assay: Nematicidal activity against Meloidogyne javanica; assay type: functional; conditions: read-out: LD50 (the source's name)
Meloidogyne incognita = assay: Nematicidal activity against Meloidogyne incognita; assay type: functional; conditions: read-out: LD50 (the source's name)
[12] = Cytotoxicity against human ACC-MESO-1 cells assessed as cell growth inhibition by MTT assay; assay type: functional, cell-based
Salmonella enterica = assay: Antibacterial activity against Salmonella enterica ATCC 6539 assessed as bacterial cell growth inhibition measured after 24 hrs by Bactiter-glo assay; assay type: functional
Staphylococcus aureus = assay: Antibacterial activity against Staphylococcus aureus assessed as bacterial growth inhibition measured after 24 hrs by optical density based analysis; assay type: functional
[13] = system: Limimaricola hongkongensis; assay: Antibacterial activity against Limimaricola hongkongensis assessed as bacterial growth inhibition measured after 24 hrs by optical density based analysis; assay type: functional
NCI-H2122 = assay: Cytotoxicity against human NCI-H2122 cells assessed as cell growth inhibition measured after 96 hrs by CellTiter-Glo assay; assay type: functional, cell-based; conditions: NCI-H2122, 96 h
[14] = Cytotoxicity against human HCC366 cells assessed as cell growth inhibition measured after 96 hrs by CellTiter-Glo assay; assay type: functional, cell-based; conditions: HCC366, 96 h
[15] = system: Trypanosoma brucei brucei; assay: Antitrypanosomal activity against Trypanosoma brucei brucei GUTat3.1 assessed as parasite growth inhibition measured after 72 hrs by alamar blue staining based analysis; assay type: functional, organism-based; conditions: GUTat3.1, 72 h
[16] = molecular target: Angiotensin-converting enzyme (Homo sapiens, UniProt P12821); assay: Inhibition of ACE (unknown origin) using hippuryl-histidyl-leucine as substrate pre-incubated with compound for 10 mins followed by substrate addition measured after 60 mins by HPLC analysis
Angiotensin-converting enzyme, sequence (P12821 whole entry): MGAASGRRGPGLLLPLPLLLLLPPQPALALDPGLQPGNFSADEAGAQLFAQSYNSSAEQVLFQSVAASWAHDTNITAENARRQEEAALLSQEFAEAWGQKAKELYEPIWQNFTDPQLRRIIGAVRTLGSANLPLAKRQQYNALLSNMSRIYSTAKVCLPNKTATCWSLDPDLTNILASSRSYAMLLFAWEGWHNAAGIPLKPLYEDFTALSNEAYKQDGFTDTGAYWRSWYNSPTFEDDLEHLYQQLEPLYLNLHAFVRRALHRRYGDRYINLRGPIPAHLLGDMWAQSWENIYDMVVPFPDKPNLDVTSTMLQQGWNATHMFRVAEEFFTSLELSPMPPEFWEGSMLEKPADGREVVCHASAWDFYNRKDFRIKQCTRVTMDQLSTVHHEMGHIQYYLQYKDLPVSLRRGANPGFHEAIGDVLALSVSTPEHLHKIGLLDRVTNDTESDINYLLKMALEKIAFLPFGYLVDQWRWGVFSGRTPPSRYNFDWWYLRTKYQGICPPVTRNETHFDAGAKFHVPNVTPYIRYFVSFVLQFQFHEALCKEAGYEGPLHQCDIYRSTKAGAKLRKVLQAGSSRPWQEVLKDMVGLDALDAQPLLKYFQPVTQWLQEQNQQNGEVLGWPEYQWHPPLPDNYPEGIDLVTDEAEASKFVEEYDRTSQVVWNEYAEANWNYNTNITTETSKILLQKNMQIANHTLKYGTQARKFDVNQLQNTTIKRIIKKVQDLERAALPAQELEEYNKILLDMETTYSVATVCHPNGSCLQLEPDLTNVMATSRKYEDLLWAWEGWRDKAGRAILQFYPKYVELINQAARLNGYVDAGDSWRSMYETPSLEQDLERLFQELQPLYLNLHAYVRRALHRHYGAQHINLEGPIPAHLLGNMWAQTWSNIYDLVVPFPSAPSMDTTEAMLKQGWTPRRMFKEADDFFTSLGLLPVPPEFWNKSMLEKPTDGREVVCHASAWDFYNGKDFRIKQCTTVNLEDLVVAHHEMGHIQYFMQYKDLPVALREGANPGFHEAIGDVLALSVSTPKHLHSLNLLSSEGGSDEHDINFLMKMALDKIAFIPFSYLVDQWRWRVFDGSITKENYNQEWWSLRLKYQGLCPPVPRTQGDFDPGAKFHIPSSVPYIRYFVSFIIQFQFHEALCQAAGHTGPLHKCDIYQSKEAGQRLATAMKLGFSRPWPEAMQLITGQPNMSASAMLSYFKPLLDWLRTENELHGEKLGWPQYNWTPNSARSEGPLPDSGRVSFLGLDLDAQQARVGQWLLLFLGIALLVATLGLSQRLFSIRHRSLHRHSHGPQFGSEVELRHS

Rho-associated protein kinase 2, sequence (O75116 whole entry): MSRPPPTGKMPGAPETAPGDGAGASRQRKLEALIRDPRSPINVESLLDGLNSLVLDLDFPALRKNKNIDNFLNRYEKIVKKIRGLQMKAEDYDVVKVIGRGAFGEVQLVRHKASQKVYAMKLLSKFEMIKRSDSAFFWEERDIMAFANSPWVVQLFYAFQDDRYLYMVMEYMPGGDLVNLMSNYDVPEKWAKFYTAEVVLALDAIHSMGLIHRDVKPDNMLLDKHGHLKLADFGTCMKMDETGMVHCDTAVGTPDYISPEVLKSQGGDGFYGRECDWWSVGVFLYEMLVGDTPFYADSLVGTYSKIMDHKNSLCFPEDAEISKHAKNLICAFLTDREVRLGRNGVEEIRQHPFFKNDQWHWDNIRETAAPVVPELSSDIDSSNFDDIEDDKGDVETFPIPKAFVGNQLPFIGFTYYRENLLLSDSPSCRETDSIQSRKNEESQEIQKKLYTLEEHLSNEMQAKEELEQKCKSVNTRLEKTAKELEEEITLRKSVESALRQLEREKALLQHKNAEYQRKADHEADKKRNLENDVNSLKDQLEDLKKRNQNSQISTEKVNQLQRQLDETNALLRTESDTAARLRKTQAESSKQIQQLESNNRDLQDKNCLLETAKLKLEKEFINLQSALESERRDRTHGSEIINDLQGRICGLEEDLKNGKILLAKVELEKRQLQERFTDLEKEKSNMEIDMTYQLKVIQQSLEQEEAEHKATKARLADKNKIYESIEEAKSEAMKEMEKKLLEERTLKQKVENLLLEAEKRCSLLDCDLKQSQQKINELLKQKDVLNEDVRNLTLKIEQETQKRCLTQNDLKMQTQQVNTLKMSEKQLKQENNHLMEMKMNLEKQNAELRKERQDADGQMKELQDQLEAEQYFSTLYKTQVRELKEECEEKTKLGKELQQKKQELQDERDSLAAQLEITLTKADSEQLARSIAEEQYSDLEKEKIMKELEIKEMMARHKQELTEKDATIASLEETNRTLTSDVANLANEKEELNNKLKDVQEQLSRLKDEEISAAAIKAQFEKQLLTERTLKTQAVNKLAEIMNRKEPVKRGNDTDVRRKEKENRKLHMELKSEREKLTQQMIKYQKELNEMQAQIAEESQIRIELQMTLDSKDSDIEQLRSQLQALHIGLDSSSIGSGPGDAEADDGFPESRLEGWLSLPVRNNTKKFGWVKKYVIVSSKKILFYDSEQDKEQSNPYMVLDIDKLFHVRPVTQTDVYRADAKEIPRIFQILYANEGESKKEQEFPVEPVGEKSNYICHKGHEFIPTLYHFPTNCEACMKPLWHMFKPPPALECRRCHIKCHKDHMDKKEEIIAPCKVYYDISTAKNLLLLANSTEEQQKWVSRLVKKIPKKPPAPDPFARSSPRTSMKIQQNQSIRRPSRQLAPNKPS
Phosphotyrosine-protein phosphatase PTPB, sequence (P96830 whole entry): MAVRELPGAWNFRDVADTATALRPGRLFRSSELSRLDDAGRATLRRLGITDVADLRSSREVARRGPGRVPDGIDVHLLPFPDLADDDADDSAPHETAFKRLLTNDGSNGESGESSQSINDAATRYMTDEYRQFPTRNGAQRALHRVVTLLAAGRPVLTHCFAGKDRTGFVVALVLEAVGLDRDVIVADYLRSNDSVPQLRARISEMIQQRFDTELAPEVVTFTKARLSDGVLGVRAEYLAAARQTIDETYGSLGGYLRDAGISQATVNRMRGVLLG

For `Cc1cccc2cc3c(c(O)c12)C(=O)CC[C@@H]3O`, the IC50 (HCT-116 [1]) was 0.63 µM and the IC50 (SW-620) was 0.63 µM.

`CCOC(=O)[C@H](Cc1c(O)cc(C)c2c(O)c3c(cc12)[C@@H](O)CCC3=O)C(=O)OC` showed an IC50 [2] of 0.96 µM.

For `C/C=C(\C)[C@H](O)[C@H](C)/C=C(/C=C/C/C(C)=C/Cc1nc(OC)c(OC)c(O)c1C)CC`, the IC50 (OS-RC-2) was 4.5 µM.

`CCOC(=O)[C@@H](Cc1c(O)cc(C)c2c(O)c3c(cc12)[C@@H](O)CCC3=O)C(=O)OC` gave an IC50 [2] of 0.96 µM.

Molecule `C/C=C/C1=CC(=O)[C@@]2(C(=O)c3c(OC)cc(OC)cc3C(=O)OC)O[C@H]2O1` has an IC50 (HL-60) of 3.7 µM and an IC50 (NCI-H1975) of 3.7 µM.

For `C=C1CC[C@H]2C(C)(C)CCC[C@]2(C)[C@H]1C[C@@]12C[C@H]3C(=O)N(C)[C@@H](C(C)C)C(=O)N3[C@@H]1Nc1ccccc12`, the IC50 (A549 [3]) was 1 µM, the IC50 (A2780) was 1 µM and the IC50 (HCT-8) was 1 µM. The IC50 (Bel-7402) was 1 µM.

In the case of `CCC(=O)OCc1c(OCC=C(C)C)c(C)cc(OC)c1C(=O)c1c(O)ccc2c1OC(C)(C)C=C2`, the IC50 (HeLa [4]) is reported as 9.2 µM.

For `CC(C)[C@@H](C)/C=C/[C@@H](C)[C@@]1(C)C[C@H]2C3=C4[C@@H](C=C5C[C@@H](O)CC[C@]5(C)[C@H]4CC[C@@]31C)[C@H](C(=O)O)[C@H]2C(=O)O`, the IC50 (RAW264.7) was 4.5 µM and the IC50 [5] was 15.1 µM.

`CCC/C=C/[C@@H]1Cc2cc(O)c(C)c(O)c2C(=O)O1` showed an LC50 [6] of 18.6 µg/mL (≈ 70.9 µM).

`C[C@@]12OC(=O)[C@]1([C@@H](O)[C@@H]1C=CCCC1)NC(=O)[C@@H]2CCCl` [MARIZOMIB] showed a GI50 (PC-3) of less than 0.011 µM, a GI50 (LOX IMVI) of less than 0.011 µM and a GI50 (HCT-116 [7]) of 0.035 µM. It also gave a GI50 (HOP-92) of less than 0.011 µM and a GI50 (OVCAR-3) of less than 0.011 µM.

Molecule `C=C1C(O)[C@@H]2/C=C/C[C@H](C)C(=O)[C@](C)(O)/C=C/OC(=O)O[C@]23C(=O)N[C@@H](Cc2ccc(OC)cc2)[C@@H]3[C@@H]1C` (stereo not given in full) has an IC50 (HepG2) of 0.47 µM, an IC50 (A549 [8]) of 0.47 µM and an IC50 (MCF7) of 0.47 µM. It also gave an IC50 (A-375) of 0.47 µM.

For `O=C1CCC(=O)O[C@@H]2[C@@H](O)[C@H](O)[C@@H](COC(=O)CCC(=O)O[C@@H]3[C@@H](O)[C@H](O)[C@@H](CO1)O[C@@H]3O)O[C@@H]2O`, the IC50 (HeLa [9]) was 37 µM and the IC50 [10] was 48 µM.

For `CCC(C)C1OC(=O)/C=C/C=C/C=C/C=C/C=C/CC(O)CC(O)CC(O)CC(O)CC(O)CC(O)CC(O)CC(O)/C=C/C1C` (stereo not given), the MIC (Candida albicans) was 25 µM (≈ 16.3 µg/mL).

`CC1=CC[C@]23C[C@@H]1C[C@@](C)(O)[C@H]2[C@H](O)C[C@@H]3C` showed an MIC [11] of 1 µg/mL (≈ 4.23 µM).

Work on `CCCCCC[C@@H](O)[C@@H]1C(=O)O[C@H](C)[C@@H](O)/C=C/C=C/C=C/C=C/C=C(\C)[C@@H](O)[C@H](O)[C@@H](O)C[C@H](O)C[C@H](O)C[C@@H](O)C[C@@H](O)C[C@@H]1O` yielded an LC50 (Meloidogyne javanica) of 7.83 µg/mL (≈ 11.4 µM) and an LC50 (Meloidogyne incognita) of 7.64 µg/mL (≈ 11.2 µM).

`CC(/C=C/C1CC1)=C\[C@@H]1[C@@H](OC(=O)CC(C)C)[C@](C)(O)[C@@H]2[C@H]3O[C@H]3CCN12` gave an IC50 (HeLa [4]) of 29 µM and an IC50 [12] of 39 µM.

Work on `CCCCC[C@@H]1Cc2cc(O)cc(O)c2C(=O)O1` yielded an LC50 [6] of 36.4 µg/mL (≈ 145 µM).

`Cc1cc2c3c(c1C)C(C)(C)CCn3c(=O)c(=O)n2C[C@H](O)[C@H](O)[C@H](O)CO` gave an MIC (Salmonella enterica) of 12.4 µM (≈ 4.87 µg/mL).

`CC(O)[C@H](NC(=O)c1cccc(NC=O)c1O)C(=O)O[C@@H](C)[C@H](OC(=O)Cc1ccccc1)[C@@H](C)C(=O)O` (stereo not given in full) gave an MIC (Staphylococcus aureus) of 32 µg/mL (≈ 60.3 µM) and an MIC [13] of 8 µg/mL (≈ 15.1 µM).

In the case of `COc1cc2nc(C(=O)NCC(=O)O)sc2c(C/C=C(\C)CC/C=C(\C)CC/C=C(\C)CCC/C(C)=C\CC(=O)O)c1O`, the IC50 (NCI-H2122) is reported as 2.5 µM and the IC50 [14] is reported as 6.8 µM.

In the case of `CCCC1C(O)=C2CCC3(C)CC(C)C(O3)C(C)C(O)C(C)C(=O)CC1OC2=O` (stereo not given), the IC50 [15] is reported as 2.4 µg/mL (≈ 5.87 µM).

Molecule `CC(=O)C[C@@]1(O)C(=O)C2=C3O[C@H](C)C(C)(C)[C@]3(O)C(=O)c3c(C)cc(O)c(c32)C1=O` has an IC50 [16] of 3.1 µM.
